Reference: patent US7728107B2 (priority 2005, dated 2010)
Where two headings read alike, the source gives them in different places.

Legend:
canine 5-HT2A receptor [1] = target: T1, canine 5-HT2A receptor (Canis lupus familiaris, UniProt O46635); assay: cell-based; format: cell-based; design: The resulting 5-HT2A full length cDNA was cloned into the pCIneo vector; expressed in transfected cells; conditions: for Rel. eff. c5-HT2A: HEK-293, fraction of response to 10 μM 5-HT; for agonist potency at canine 5-HT2A compared to human 5-HT2A: Table 3
T1 sequence (O46635 whole entry): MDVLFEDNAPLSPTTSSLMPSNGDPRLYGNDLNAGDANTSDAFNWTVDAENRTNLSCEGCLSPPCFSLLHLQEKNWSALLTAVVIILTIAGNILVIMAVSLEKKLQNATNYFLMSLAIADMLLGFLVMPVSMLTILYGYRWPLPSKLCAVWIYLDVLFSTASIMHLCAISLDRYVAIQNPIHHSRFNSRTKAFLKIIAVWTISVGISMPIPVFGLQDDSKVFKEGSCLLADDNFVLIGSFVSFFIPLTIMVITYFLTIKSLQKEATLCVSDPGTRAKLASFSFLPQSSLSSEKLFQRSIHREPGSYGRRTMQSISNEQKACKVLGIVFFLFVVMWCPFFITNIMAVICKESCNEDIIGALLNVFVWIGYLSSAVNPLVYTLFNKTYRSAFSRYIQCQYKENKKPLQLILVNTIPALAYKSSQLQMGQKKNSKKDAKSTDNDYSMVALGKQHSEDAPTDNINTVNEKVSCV

human 5-HT2A receptor [2] = target: T2, human 5-HT2A receptor (Homo sapiens, UniProt P28223); assay: cell-based; format: cell-based
T2 construct: expressed in transfected cells
T2 sequence (P28223 whole entry): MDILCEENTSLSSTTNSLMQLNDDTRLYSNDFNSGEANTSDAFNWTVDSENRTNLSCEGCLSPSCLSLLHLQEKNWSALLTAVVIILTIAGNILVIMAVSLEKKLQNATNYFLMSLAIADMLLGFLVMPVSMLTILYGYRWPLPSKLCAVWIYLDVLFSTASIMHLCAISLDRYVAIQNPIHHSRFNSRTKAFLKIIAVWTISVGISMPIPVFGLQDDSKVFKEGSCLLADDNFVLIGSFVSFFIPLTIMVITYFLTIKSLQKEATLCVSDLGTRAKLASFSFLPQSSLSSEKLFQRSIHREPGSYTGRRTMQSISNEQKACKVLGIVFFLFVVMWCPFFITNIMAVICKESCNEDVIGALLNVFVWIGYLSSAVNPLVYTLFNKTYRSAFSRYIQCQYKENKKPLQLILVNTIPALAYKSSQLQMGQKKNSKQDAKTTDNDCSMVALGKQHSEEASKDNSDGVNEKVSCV

[3] = tested on: non-transfected cells (HEK-293, NIH3T3 or CHO); assay: FLIPR Ca^2+ assay in non-transfected cells; format: cell-based; conditions: non-transfected HEK-293, CHO or NIH3T3 cells
Method: Dye-loaded cells were plated onto 96-well ViewPlates (Packard, Meriden, Conn.) and incubated at 37° C. and 5% CO2 for one hour. Once dye-loaded, dye media was replaced with serum-free DMEM/F-12. […] Ligand-induced Ca^2+ release was measured using a Fluorometric Imaging Plate Reader (FLIPR, Molecular Devices, Sunnyvale, Calif.). Functional responses were measured as peak fluorescence intensity minus basal. The concentration of agonist that produced a half-maximal response is represented by the EC50 value. […] Antagonistic potency values were converted to apparent pKB values using a modified Cheng-Prusoff correction. Apparent pKB=−log IC50/1+[conc agonist/EC50]. Data are expressed as mean±S.E.M.
None of the compounds (10 μM) tested elicited a response in non-transfected cells (HEK-293, NIH3T3 or CHO). In addition, none of the antagonists tested increased Ca^2+ in any of the transfected cell types.

canine 5-HT2A receptor [4] = target: T1, canine 5-HT2A receptor; assay: biochemical
human 5-HT2B receptor [5] = target: T3, human 5-HT2B receptor (Homo sapiens, UniProt P41595); assay: biochemical; format: binding
T3 construct: expressed in transfected cells
T3 sequence (P41595 whole entry): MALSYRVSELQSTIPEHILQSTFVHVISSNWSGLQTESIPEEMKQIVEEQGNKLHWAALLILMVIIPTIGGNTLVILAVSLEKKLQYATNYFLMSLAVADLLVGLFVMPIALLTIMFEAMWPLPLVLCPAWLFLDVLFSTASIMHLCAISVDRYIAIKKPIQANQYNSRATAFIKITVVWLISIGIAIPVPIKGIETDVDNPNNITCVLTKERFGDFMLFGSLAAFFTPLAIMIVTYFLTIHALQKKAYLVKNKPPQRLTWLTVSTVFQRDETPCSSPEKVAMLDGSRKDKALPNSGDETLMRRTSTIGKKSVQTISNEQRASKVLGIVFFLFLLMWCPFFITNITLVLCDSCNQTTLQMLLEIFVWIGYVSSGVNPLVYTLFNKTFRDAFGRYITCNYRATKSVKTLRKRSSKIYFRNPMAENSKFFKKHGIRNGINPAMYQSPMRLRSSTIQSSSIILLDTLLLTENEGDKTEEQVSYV

human 5-HT2B receptor [6] = target: T3, human 5-HT2B receptor; assay: cell-based; format: cell-based; conditions: for Rel. eff h5-HT2B: fraction of response to 10 μM 5-HT
human 5-HT2A receptor [7] = target: T2, human 5-HT2A receptor; assay: biochemical; format: binding
canine 5-HT2B receptor [8] = target: T4, canine 5-HT2B receptor (Canis lupus familiaris, UniProt Q50DZ8); assay: cell-based; format: cell-based; design: Apparent equilibrium dissociation constant KD; other: canine 5-HT2B, COS-7 membranes, mean ± S.E.M. (n = 3 to 6); other: COS-7 membranes; head prints [^3H]-ketanserin; mean ± S.E.M of 3-8 experiments; KD of radioligand; other: canine 5-HT2B, transfected COS-7 membranes; other: HEK-293, Ca^2+ FLIPR, mean ± S.E.M of 3 to 6 experime; conditions: for Rel. eff. c5-HT2B: HEK-293, fraction of response to 10 μM 5-HT
canine 5-HT2B receptor [9] = target: T4, canine 5-HT2B receptor; assay: biochemical; format: binding; design: Apparent equilibrium dissociation constant KD; other: canine 5-HT2B, COS-7 membranes, mean ± S.E.M. (n = 3 to 6); other: COS-7 membranes; head prints [^3H]-ketanserin; mean ± S.E.M of 3-8 experiments; KD of radioligand; other: canine 5-HT2B, transfected COS-7 membranes; other: HEK-293, Ca^2+ FLIPR, mean ± S.E.M of 3 to 6 experime
canine 5-HT2B receptor [10] = assay: biochemical; format: binding; conditions: ratio of binding affinities canine vs human 5-HT2B
canine 5-HT2A receptor [11] = target: T1, canine 5-HT2A receptor; conditions: for Ratio c5-HT2A vs. h5-HT2A: ratio of binding affinities canine vs human 5-HT2A
canine 5-HT2A receptor [12] = target: T1, canine 5-HT2A receptor; assay: Saturation binding of [^3H]5-HT to membranes of COS-7 cells transfected with canine 5-HT2A receptor
[13] = HEK-293, Ca^2+ FLIPR, apparent pKB, mean ± S.E.M of 3 to 6 experiments, read-out: Antagonist affinity pKB c5-HT2B (converted)
[14] = read-out: Affinity constant pKI c5-HT2B (converted)
[15] = read-out: Affinity constant pKI h5-HT2B (converted)
[16] = CHO, Ca^2+ FLIPR, apparent pKB, mean ± S.E.M of 3 to 6 experiments, read-out: Antagonist affinity pKB h5-HT2B (converted)
[17] = HEK-293, Ca^2+ FLIPR, apparent pKB, mean ± S.E.M of 3 to 6 experiments

SMILES: NCCc1c[nH]c2ccc(O)cc12 [5-HT, 5-hydroxytryptamine]
- Rel. eff. c5-HT2A (canine 5-HT2A receptor [1]): 1
- peak fluorescence intensity of Ca^2+ response (canine 5-HT2A receptor [1]; canine 5-HT2A, HEK-293, FIG. 5A): 13600 peak fluorescence intensity units
- Rel. eff. h5-HT2A (human 5-HT2A receptor [2]): 1
- peak fluorescence intensity of Ca^2+ response (human 5-HT2A receptor [2]): 15800 peak fluorescence intensity units
- Ca^2+ response in non-transfected cells [3]: No signal
- Ki (canine 5-HT2A receptor [4]): 178 nM

SMILES: CN1C[C@@H](NS(=O)(=O)N(C)C)C[C@@H]2c3cccc4c3c(cn4C)C[C@H]21 [Mesulergine, mesulergine]
- Kb (canine 5-HT2A receptor [1]): 25.1 nM
- Ki (human 5-HT2B receptor [5]): 8.71 nM
- Kb (human 5-HT2B receptor [6]): 2.34 nM
- Ki (human 5-HT2A receptor [7]): 22.9 nM
- Kb (human 5-HT2A receptor [2]): 58.9 nM
- Kb (canine 5-HT2B receptor [8]; [13]): 0.501 nM
- Ki (canine 5-HT2B receptor [9]; [14]): 17 nM
- Ki (canine 5-HT2A receptor [4]): 91.2 nM

SMILES: O=C(c1ccc(F)cc1)C1CCN(CCn2c(=O)[nH]c3ccccc3c2=O)CC1 [[^3H]-ketanserin]
- Kd (canine 5-HT2A receptor [4]): 1.3 ± 0.12 nM

SMILES: CN1C[C@@H](NS(=O)(=O)N(C)C)C[C@@H]2c3cccc4c3c(cn4C)C[C@H]21 [[^3H]-mesulergine]
- Kd (canine 5-HT2B receptor [9]; canine 5-HT2B, transfected COS-7 membranes, read-out: KD of radioligand): 5.43 ± 0.69 nM

SMILES: CN1CCc2cc(Cl)c(O)cc2[C@@H](c2ccccc2)C1 [SCH-23390, R-(+)-7-chloro-8-hydroxy-3-methyl-1-phenyl-2,3,4,5-tetrahydro(1H)-3-benzapine]
- Ki (human 5-HT2B receptor [5]; [15]): 275 nM
- Ki (human 5-HT2A receptor [7]): 13.5 nM
- Ki (canine 5-HT2B receptor [9]; [14]): 309 nM
- Ki (canine 5-HT2A receptor [4]): 16.2 nM

SMILES: NCCc1c[nH]c2ccc(C(N)=O)cc12 [5-CT, 5-carboxyamidotryptamine]
- Rel. eff. c5-HT2A (canine 5-HT2A receptor [1]): 0.94 ± 0.08
- agonist potency at canine 5-HT2A compared to human 5-HT2A (canine 5-HT2A receptor [1]; functional Ca^2+ assay): higher potencies
- Ki (human 5-HT2B receptor [5]): 61.7 nM
- Rel. eff h5-HT2B (human 5-HT2B receptor [6]; CHO): 0.95 ± 0.01
- Ki (human 5-HT2A receptor [7]): 1150 nM
- Rel. eff. h5-HT2A (human 5-HT2A receptor [2]): 0.70 ± 0.13
- Ratio c5-HT2B vs. h5-HT2B (canine 5-HT2B receptor [10]): 1.20
- Rel. eff. c5-HT2B (canine 5-HT2B receptor [8]): 1.19 ± 0.05
- Ki (canine 5-HT2B receptor [9]): 74.1 nM
- Ratio c5-HT2A vs. h5-HT2A (canine 5-HT2A receptor [11]): 1.99
- Ki (canine 5-HT2A receptor [4]): 2290 nM

SMILES: CC(N)Cc1c[nH]c2ccc(OCc3cccs3)cc12 (centres unmarked) [BW-723C86, 1-{5-(2-thienyl-methoxy)-1H-3-indolyl}propan-2-amine]
- Rel. eff h5-HT2B (human 5-HT2B receptor [6]; CHO): 0.98 ± 0.01
- Rel. eff. c5-HT2B (canine 5-HT2B receptor [8]): 0.93 ± 0.03
- Ki (canine 5-HT2B receptor [9]): 26.3 nM

SMILES: Cc1cc(NC(=O)Nc2ccc3c(ccn3C)c2)sn1 [SB-204741, N-(1-methyl-5-in-dolyl)-N′-(3-methyl-5-isothiazolyl) urea]
- Kb (canine 5-HT2A receptor [1]): > 10000 nM
- Ki (human 5-HT2B receptor [5]; [15]): 120 nM
- Kb (human 5-HT2B receptor [6]; [16]): 44.7 nM
- Kb (canine 5-HT2B receptor [8]; [13]): 44.7 nM
- Ki (canine 5-HT2B receptor [9]; [14]): 182 nM
- Ki (canine 5-HT2A receptor [4]): > 10000 nM

SMILES: FC(F)(F)c1cccc(N2CCNCC2)c1 [TFMPP, N-(3-trifluoromethyl-henyl)piperazine]
- Rel. eff. c5-HT2A (canine 5-HT2A receptor [1]): 0.72 ± 0.04
- agonist potency at canine 5-HT2A compared to human 5-HT2A (canine 5-HT2A receptor [1]; functional Ca^2+ assay): higher potencies
- Affinity constant pKI h5-HT2B (human 5-HT2B receptor [5]; CHO membranes, head: [^3H]-mesulergine, mean ± S.E.M of 3-8 experiments): 7.40 ± 0.05
- Rel. eff h5-HT2B (human 5-HT2B receptor [6]; CHO): 0.49 ± 0.04
- Ki (human 5-HT2A receptor [7]): 87.1 nM
- Rel. eff. h5-HT2A (human 5-HT2A receptor [2]): 0.17 ± 0.01
- Ratio c5-HT2B vs. h5-HT2B (canine 5-HT2B receptor [10]): 1.04
- agonistic response on canine 5-HT2B receptor (canine 5-HT2B receptor [8]; HEK-293, Ca^2+ FLIPR): no agonistic response
- Ki (canine 5-HT2B receptor [9]): 41.7 nM
- Ratio c5-HT2A vs. h5-HT2A (canine 5-HT2A receptor [11]): 2.45
- Ki (canine 5-HT2A receptor [4]): 214 nM

SMILES: O=C(c1ccc(F)cc1)C1CCN(CCn2c(=O)[nH]c3ccccc3c2=O)CC1 [Ketanserin, ketanserin]
- Kb (canine 5-HT2A receptor [1]): 1.26 nM
- Kb (canine 5-HT2B receptor [8]): 1580 nM
- Ki (canine 5-HT2B receptor [9]): 631 nM
- Ki (canine 5-HT2A receptor [4]): 14.5 nM

SMILES: COC(=O)[C@@H]1[C@H]2C[C@H]3c4[nH]c5ccccc5c4CCN3C[C@@H]2CC[C@@H]1O [Yohimbine, yohimbine]
- Kb (canine 5-HT2B receptor [8]): 1.58 nM
- Ki (canine 5-HT2B receptor [9]): 81.3 nM

SMILES: Clc1cccc(N2CCNCC2)c1 [m-CPP, 1-(3-chlorophenyl)piperazine]
- Rel. eff. c5-HT2A (canine 5-HT2A receptor [1]): 0.71 ± 0.04
- agonist potency at canine 5-HT2A compared to human 5-HT2A (canine 5-HT2A receptor [1]; functional Ca^2+ assay): higher potencies
- Rel. eff h5-HT2B (human 5-HT2B receptor [6]; CHO): 0.55 ± 0.06
- Rel. eff. h5-HT2A (human 5-HT2A receptor [2]): 0.20 ± 0.02
- agonistic response on canine 5-HT2B receptor (canine 5-HT2B receptor [8]; HEK-293, Ca^2+ FLIPR): no agonistic response
- Ki (canine 5-HT2B receptor [9]): 20.9 nM
- Ki (canine 5-HT2A receptor [4]): 195 nM

SMILES: COc1cc(CC(C)N)c(OC)cc1I (centres unmarked) [DOI, 1-(2,5-dimethoxy-4-iodophenyl)-2-aminopropane]
- Rel. eff. c5-HT2A (canine 5-HT2A receptor [1]): 0.89 ± 0.02
- Ki (human 5-HT2B receptor [5]): 15.1 nM
- Rel. eff h5-HT2B (human 5-HT2B receptor [6]; CHO): 0.96 ± 0.02
- Rel. eff. h5-HT2A (human 5-HT2A receptor [2]): 0.65 ± 0.04
- Rel. eff. c5-HT2B (canine 5-HT2B receptor [8]): 0.75 ± 0.03
- Ki (canine 5-HT2B receptor [9]): 13.2 nM
- Ki (canine 5-HT2A receptor [4]): 12 nM

SMILES: Cc1nc2sccn2c(=O)c1CCN1CCC(=C(c2ccc(F)cc2)c2ccc(F)cc2)CC1 [Ritanserin, ritanserin]
- Kb (canine 5-HT2A receptor [1]): 7.08 nM
- Ki (human 5-HT2B receptor [5]): 4.57 nM
- Kb (human 5-HT2B receptor [6]): 5.89 nM
- Kb (canine 5-HT2B receptor [8]): 10 nM
- Ki (canine 5-HT2B receptor [9]): 3.98 nM
- Ki (canine 5-HT2A receptor [4]): 7.59 nM

SMILES: NCCc1c[nH]c2ccc(O)cc12 [[^3H]-5-HT]
- Kd (canine 5-HT2A receptor [12]): 3 ± 0.6 nM

SMILES: COc1ccc2[nH]cc(C3=CCNCC3)c2c1 [RU-24969, 5-methoxy-3(1,2,3,6-tetrahydro-4-pyridiny)-1H-indole]
- Ki (canine 5-HT2B receptor [9]): 12.9 nM

SMILES: CSc1ccc2c(c1)C(N1CCN(C)CC1)Cc1ccccc1S2 (centres unmarked) [Methiothepin, methiothepin]
- Antagonist affinity pKB c5-HT2A (canine 5-HT2A receptor [1]; [17]): 8.33 ± 0.09
- antagonist affinity for canine 5-HT2A receptor compared to human 5-HT2A receptor (canine 5-HT2A receptor [1]; functional Ca^2+ assay, Table 4): eleven-fold higher affinity
- Antagonist affinity pKB c5-HT2B (canine 5-HT2B receptor [8]; [17]): 8.07 ± 0.77
- Affinity constant pKI c5-HT2B (canine 5-HT2B receptor [9]; COS-7 membranes, head prints [^3H]-ketanserin, mean ± S.E.M of 3-8 experiments): 8.12 ± 0.16
- Ki (canine 5-HT2A receptor [11]): 3.55 nM

SMILES: CN(C)CCO/N=C(/C=C/c1ccc(O)cc1)c1ccccc1F [Eplivanserin, eplivanserin]
- Kb (canine 5-HT2A receptor [1]; HEK-293, Ca^2+ FLIPR, apparent pKB, mean ± S.E.M of 3 to 6 experiments, read-out: Antagonist affinity pKB c5-HT2A (converted)): 0.251 nM
- Ki (human 5-HT2B receptor [5]; [15]): 1410 nM
- Kb (human 5-HT2B receptor [6]; [16]): > 10000 nM
- Ki (human 5-HT2A receptor [7]; read-out: Affinity constant pKI h5-HT2A (converted)): 0.2 nM
- Kb (human 5-HT2A receptor [2]; NIH3T3, Ca^2+ FLIPR, apparent pKB, mean ± S.E.M of 3 to 6 experiments, read-out: Antagonist affinity pKB h5-HT2A (converted)): 0.372 nM
- Kb (canine 5-HT2B receptor [8]; [13]): > 10000 nM
- Ki (canine 5-HT2B receptor [9]; [14]): 1910 nM
- Ki (canine 5-HT2A receptor [4]): 1 nM
